Like-named read-outs stand apart in the source and are kept apart here.
Key:
Assay in all cases: Etest MIC of indicator carbapenems on MH II agar without/with PMBN
Format in all cases: cell-based
[1] = tested on: E. aerogenes 1204050 (membrane impermeability); conditions: in µg/mL
Outline: (§1)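 MH II agar ± PMBN (0 to ⅕ MICPMBN, non-inhibitory), swabbed with 0.5 McFarland inoculum; IM 32, ETP 32, MP 32 Etest strips applied; read at 16–20 h, 35° C.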

[2] = tested on: E. cloacae 1109137 (OXA-48 producer)
Outline: as §1

[3] = tested on: E. cloacae 1204052 (membrane impermeability)
Outline: as §1

[4] = tested on: E. cloacae 1204053 (membrane impermeability)
Outline: as §1

[5] = tested on: E. cloacae 1204058 (membrane impermeability); conditions: in µg/mL
Outline: as §1

[6] = tested on: E. cloacae 1204153 (membrane impermeability); conditions: in µg/mL
Outline: as §1

[7] = tested on: E. coli 1008078 (VIM producer)
Outline: as §1

E. coli SAB 100 (porin−) = conditions: Escherichia coli
Outline: as §1

E. coli SAB 108 (porin−) = conditions: Escherichia coli
Outline: as §1

[8] = tested on: Enterobacter aerogenes EA 27 (porin−); conditions: Klebsiella aerogenes
Outline: as §1

[9] = tested on: Enterobacter aerogenes EA 5 (porin−); conditions: Klebsiella aerogenes
Outline: as §1

[10] = tested on: K. pneumoniae 1012142 (KPC-2 producer)
Outline: as §1

[11] = tested on: K. pneumoniae 1103183 (NDM producer)
Outline: as §1

[12] = tested on: K. pneumoniae 1204035 (membrane impermeability); conditions: in µg/mL
Outline: as §1

[13] = tested on: K. pneumoniae 1204036 (membrane impermeability)
Outline: as §1

[14] = tested on: K. pneumoniae 1204039 (membrane impermeability)
Outline: as §1

[15] = tested on: K. pneumoniae KP 55 (porin−); conditions: Klebsiella pneumoniae
Outline: as §1

[16] = tested on: K. pneumoniae 0404024 (VIM-1 producer)
Method: The determinations of antibiotic MIC were carried out on solid culture media with the Etest® method. To do this, Etest® strips (bioMérieux, France) were used: • Etest® Imipenem IM 32, and • Etest® Ertapenem ETP 32, and also solid culture media, differing from one another by virtue of their non-inhibitory concentrations of PMBN.
These solid culture media are prepared in Petri dishes (0=145 mm; V=50 ml) on a base of MH II Agar (Becton Dickinson®, United States), more or less supplemented with PMBN. The PMBN concentrations range from 0 up to concentrations equivalent to one fifth of the MIC of PMBN (⅕ MICPMBN).
Using a swab and the Retro C80™ rota-plater (bioMérieux, France), the culture media were inoculated with the bacteria, originating from an inoculum of 0.5 McFarland, prepared in 0.85% NaCl solution from colonies subcultured the day before on MH II agar.
The various Etest® strips are then deposited on the surface of the culture media. After 16 to 20 hours of incubation at 35° C., the MICS were read.
To do this, imipenem and ertapenem were used as indicator carbapenems. Non-inhibitory concentrations of PMBN, equivalent to concentrations of one tenth ( 1/10), one eighth (⅛) and one fifth (⅕) of the MIC of PMBN, were applied.

In the case of C[C@@H](O)[C@H]1C(=O)N2C(C(=O)O)=C(S[C@@H]3CN[C@H](C(=O)Nc4cccc(C(=O)O)c4)C3)[C@H](C)[C@H]12 [ETP, ertapenem], the MIC ([1]; [PMBN] 0, Table 4a) is reported as >32, the MIC ([1]; [PMBN] 100, Table 4a) is reported as >32 and the MIC ([1]; [PMBN] 200, Table 4a) is reported as >32. The MIC ([1]; [PMBN] 300, Table 4a) was >32, the MIC ([2]; [PMBN] 0, Table 4a) was 24 µg/mL and the MIC ([2]; [PMBN] 200, Table 4a) was 12 µg/mL. The MIC ([2]; [PMBN] 300, Table 4a) was > 32 µg/mL, the MIC ([3]; [PMBN] 0, Table 4a) was > 32 µg/mL and the MIC ([3]; [PMBN] 100, Table 4a) was 12 µg/mL. For the same molecule, the MIC ([3]; [PMBN] 200, Table 4a) was 8 µg/mL, the MIC ([3]; [PMBN] 300, Table 4a) was 3 µg/mL and the MIC ([4]; [PMBN] 0, Table 4a) was > 32 µg/mL. For the same molecule, the MIC ([4]; [PMBN] 100, Table 4a) was > 32 µg/mL, the MIC ([4]; [PMBN] 200, Table 4a) was > 32 µg/mL and the MIC ([4]; [PMBN] 300, Table 4a) was 4 µg/mL. The MIC ([5]; [PMBN] 0, Table 4a) was >32, the MIC ([5]; [PMBN] 100, Table 4a) was 8-12 and the MIC ([5]; [PMBN] 300, Table 4a) was 0.75. The MIC ([6]; [PMBN] 0, Table 4a) was >32, the MIC ([6]; [PMBN] 100, Table 4a) was 8 and the MIC ([6]; [PMBN] 200, Table 4a) was 4. The MIC ([6]; [PMBN] 300, Table 4a) was 3, the MIC ([7]; [PMBN] 0, Table 4a) was 2 µg/mL and the MIC ([7]; [PMBN] 100, Table 4a) was 0.75 µg/mL. It also gave an MIC ([7]; [PMBN] 200, Table 4a) of 0.5 µg/mL, an MIC ([7]; [PMBN] 300, Table 4a) of 0.38 µg/mL and an MIC (E. coli SAB 100 (porin−); [PMBN] 0) of 1.5 µg/mL. The MIC (E. coli SAB 100 (porin−); [PMBN] 50 μg/ml) was 0.19 µg/mL, the MIC (E. coli SAB 100 (porin−); [PMBN] 100 μg/ml) was 0.19 µg/mL and the MIC (E. coli SAB 100 (porin−); [PMBN] 150 μg/ml) was 0.125 µg/mL. For the same molecule, the MIC (E. coli SAB 100 (porin−); [PMBN] 200 μg/ml) was 0.125 µg/mL, the MIC (E. coli SAB 108 (porin−); [PMBN] 0) was 4 µg/mL and the MIC (E. coli SAB 108 (porin−); [PMBN] 50 μg/ml) was 0.25 µg/mL. For the same molecule, the MIC (E. coli SAB 108 (porin−); [PMBN] 100 μg/ml) was 0.19 µg/mL, the MIC (E. coli SAB 108 (porin−); [PMBN] 150 μg/ml) was 0.19 µg/mL and the MIC (E. coli SAB 108 (porin−); [PMBN] 200 μg/ml) was 0.19 µg/mL. The MIC [8] was 0.125 µg/mL, the MIC ([8]; E. aerogenes EA 27 (porin−), [PMBN] 0, Table 4, read-out: MIC) was > 32 µg/mL and the MIC ([8]; E. aerogenes EA 27 (porin−), [PMBN] 50 μg/ml, read-out: MIC) was 4 µg/mL. For the same molecule, the MIC ([8]; E. aerogenes EA 27 (porin−), [PMBN] 100 μg/ml, read-out: MIC) was 1.5 µg/mL, the MIC ([8]; E. aerogenes EA 27 (porin−), [PMBN] 150 μg/ml, read-out: MIC) was 0.75 µg/mL and the MIC ([8]; E. aerogenes EA 27 (porin−), [PMBN] 200 μg/ml, read-out: MIC) was 0.19 µg/mL. For the same molecule, the MIC ([8]; EA 27 (porin−), [PMBN] 0, Table 2, read-out: MIC) was 64 µg/mL, the MIC ([8]; EA 27 (porin−), [PMBN] MIC/8, read-out: MIC) was 0.25 µg/mL and the MIC ([8]; EA 27 (porin−), [PMBN] MIC/10, read-out: MIC) was 16 µg/mL. The MIC ([9]; E. aerogenes EA 5 (porin−), [PMBN] 0, Table 4) was 6 µg/mL, the MIC ([9]; E. aerogenes EA 5 (porin−), [PMBN] 50 μg/ml) was 2 µg/mL and the MIC ([9]; E. aerogenes EA 5 (porin−), [PMBN] 100 μg/ml) was 2 µg/mL. For the same molecule, the MIC ([9]; E. aerogenes EA 5 (porin−), [PMBN] 150 μg/ml) was 1.5 µg/mL, the MIC ([9]; E. aerogenes EA 5 (porin−), [PMBN] 200 μg/ml) was 1 µg/mL and the MIC ([9]; EA 5 (porin−), [PMBN] 0, Table 2) was 32 µg/mL. For the same molecule, the MIC ([9]; EA 5 (porin−), [PMBN] MIC/5) was 4 µg/mL, the MIC ([9]; EA 5 (porin−), [PMBN] MIC/8) was 4 µg/mL and the MIC ([9]; EA 5 (porin−), [PMBN] MIC/10) was 4 µg/mL. For the same molecule, the MIC ([10]; [PMBN] 0, Table 4a) was 32 µg/mL, the MIC ([10]; [PMBN] 100, Table 4a) was > 32 µg/mL and the MIC ([10]; [PMBN] 200, Table 4a) was > 32 µg/mL. The MIC ([10]; [PMBN] 300, Table 4a) was > 32 µg/mL, the MIC ([11]; [PMBN] 0, Table 4a) was > 32 µg/mL and the MIC ([11]; [PMBN] 100, Table 4a) was > 32 µg/mL. For the same molecule, the MIC ([11]; [PMBN] 200, Table 4a) was 32 µg/mL, the MIC ([11]; [PMBN] 300, Table 4a) was 32 µg/mL and the MIC ([12]; [PMBN] 0, Table 4a) was >32. The MIC ([12]; [PMBN] 100, Table 4a) was 8, the MIC ([12]; [PMBN] 200, Table 4a) was 8-12 and the MIC ([12]; [PMBN] 300, Table 4a) was 6. The MIC ([13]; [PMBN] 0, Table 4a) was > 32 µg/mL, the MIC ([13]; [PMBN] 100, Table 4a) was > 32 µg/mL and the MIC ([13]; [PMBN] 200, Table 4a) was > 32 µg/mL. The MIC ([13]; [PMBN] 300, Table 4a) was > 32 µg/mL, the MIC ([14]; [PMBN] 0, Table 4a) was 2 µg/mL and the MIC ([14]; [PMBN] 100, Table 4a) was 1.5 µg/mL. The MIC ([14]; [PMBN] 200, Table 4a) was 1.5 µg/mL, the MIC ([14]; [PMBN] 300, Table 4a) was 1 µg/mL and the MIC ([15]; [PMBN] 0) was 0.38 µg/mL. It also gave an MIC ([15]; [PMBN] 50 μg/ml) of 0.25 µg/mL, an MIC ([15]; [PMBN] 100 μg/ml) of 0.19 µg/mL and an MIC ([15]; [PMBN] 150 μg/ml) of 0.125 µg/mL. It also gave an MIC ([15]; [PMBN] 200 μg/ml) of 0.064 µg/mL, an MIC ([16]; [PMBN] 0) of 128 µg/mL and an MIC ([16]; [PMBN] MIC/5) of 16 µg/mL. The MIC ([16]; [PMBN] MIC/8) was 32 µg/mL and the MIC ([16]; [PMBN] MIC/10) was 32 µg/mL.
